Where two headings read alike, the source gives them in different places.
Target: T1, PsPto‐PscC‐LBD (Pseudomonas syringae group genomosp. 3, UniProt Q883C0)
T1 construct: gene PSPTO_2448; pET28b(+) derivative p2448-LBD, HisTrap purified, E. coli BL21(AI)
Test: isothermal titration calorimetry
Format: binding

T1 sequence (Q883C0 entry or part of it): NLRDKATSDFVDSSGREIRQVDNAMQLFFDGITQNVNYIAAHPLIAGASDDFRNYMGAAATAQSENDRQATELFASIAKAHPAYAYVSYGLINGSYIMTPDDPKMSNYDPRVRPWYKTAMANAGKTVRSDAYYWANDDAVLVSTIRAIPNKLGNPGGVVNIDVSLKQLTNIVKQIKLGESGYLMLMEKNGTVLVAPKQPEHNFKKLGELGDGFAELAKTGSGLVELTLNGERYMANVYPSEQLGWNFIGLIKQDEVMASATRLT

SMILES | Kd (read-out: K D) | Kd
NCCCC(=O)O [GABA] | 1.87 ± 0.3 µM | –
O=C(O)[C@@H]1CCCN1 [L‐Pro] | – | 4.52 ± 0.4 µM
